Holding throughout (format): in vivo
The subject of assay [1] is Tetranychus urticae (spider mites - adult). The assay can be described thus: Contact test, spider mites - adult (TUa), French bean leaf. To be noted: 72 h, 3 days, read-out: TUA grading of mortality. Summed up: (§1)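 Each pest was kept on its food plant or foodstuff and exposed, directly or via the medium, to 100 to 500 ppm Product in water containing 0.1% by weight wetting agent. Kill was recorded over one to seven days.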

For assay [2], the system named is Tetranychus urticae (spider mites - ova). The experiment in a line: Contact test, spider mites - ova (TUe), French bean leaf. To be noted: 144 h, 6 days, read-out: TUE grading of mortality. The gist of the method:
as §1

For a further assay, the system named is Myzus persicae (aphids). The assay can be described thus: Contact test, aphids (MP), Chinese Cabbage leaf. To be noted: 72 h, 3 days, read-out: MP grading of mortality. The gist of the method:
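Aphids on a host plant and/or the plant itself were treated with 100–500 ppm of product, applied from acetone diluted in water containing 0.1% SYNPERONIC NX wetting agent. Mortality was scored usually one to seven days after treatment.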

Assay [3] deals with Nilaparvata lugens (brown plant hopper - nymphs). The assay can be described thus: Contact test, brown plant hopper - nymphs (NL), Rice plant. The conditions noted are these: 72 h, 3 days, read-out: NL grading of mortality. Summed up: as §1
Assay [4] deals with Musca domestica (houseflies - adults). The assay can be described thus: Knockdown test, houseflies - adults (MD/KD), Cotton wool/sugar. The conditions noted are these: 4 hours, read-out: MD/KD grading of knockdown. Summed up:
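Product was dissolved in acetone and diluted with water containing 0.1% wetting agent to 100–500 ppm. The flies and/or their food medium were treated with the preparation. Mortality was scored 1–7 days after treatment, with an additional knockdown assessment for houseflies.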

The test system is the same in assay [5]. The experiment in a line: Contact test, houseflies - adults (MD), Cotton wool/sugar. To be noted: 24 h, 1 day, read-out: MD grading of mortality. The gist of the method:
as §1

The test system of assay [6] is Blattella germanica (cockroach nymphs). The experiment in a line: Residual test, cockroach nymphs (BG), Plastic pot. The conditions noted are these: 72 h, 3 days, read-out: BG grading of mortality. The gist of the method: as §1
The test system of assay [7] is Heliothis virescens (tobacco budworm - larvae). The experiment in a line: Residual test, tobacco budworm - larvae (HV), Cotton leaf. The conditions noted are these: 72 h, read-out: HV grading of mortality. The gist of the method: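 Products applied as acetone solutions diluted in water with 0.1% wetting agent, at 100–500 ppm; pests on host plant or food, with pests and/or medium treated. Mortality or knockdown scored 1–7 days after treatment and graded A (80–100%), B (50–79%) or C (<50%).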

For assay [8], the system named is Diabrotica balteata (rootworm larvae). The assay can be described thus: Residual test, rootworm larvae (DB), Filter paper/maize seed. The conditions noted are these: 72 h, 3 days, read-out: DB grading of mortality. Summed up: as §1
In assay [9] the test system is Meloidogyne incognita (Tomato root knot eelworm - larvae). The experiment in a line: Residual test, Tomato root knot eelworm - larvae (MI), Semi in-vitro. To be noted: 168 h, application rate is half that recorded, 7 days, read-out: MI grading of mortality; for mortality at 125 µg/mL: rate 250 ppm.
Assay [10] relates to Chilo partellus (Maize stemborer - larvae). The assay can be described thus: Residual test, Maize stemborer - larvae (CP), Oilseed rape. The conditions noted are these: 72 h, 3 days, read-out: CP grading of mortality. As to the method:
The activity of the Product was determined using a variety of insect pests. The Product was used in the form of liquid preparations containing from 100 to 500 parts per million (ppm) by weight of the Product. The preparations were made by dissolving the Product in acetone and diluting the solutions with water containing 0.1% by weight of a wetting agent sold under the trade name "SYNPERONIC" NX until the liquid preparations contained the required concentration of the Product. "SYNPERONIC" is a Registered Trade Mark.
The test procedure adopted with regard to each pest was basically the same and comprised supporting a number of the pests on a medium which was usually a host plant or a foodstuff on which the pests feed, and treating either or both the pests and the medium with the preparations. The mortality of the pests was then assessed at periods usually varying from one to seven days after the treatment.
The results of the tests are given in Table III for each of the Products, at the rate in parts per million given in the second column as a grading of mortality designated as A, B or C wherein A indicates 80-100% mortality or knockdown (70-100% for Meloidogyne incognita), B indicates 50-79% mortality knockdown or knockdown (50-69% for Meloidogyne incognita) and C indicates less than 50% mortality or knockdown.
In Table III the pest organism used is designated by a letter code and the pests species, the support medium or food, and the type and duration of test is given in Table II.
(Maize stemborer - larvae)

As usually defined, the mortality is the percentage killed.

As to `Fc1ccc(CCCC(c2ccc(OC(F)(F)F)cc2)C(F)(F)F)cc1Oc1ccccc1` (racemic) [Compound 20, 1,1,1-Trifluoro-2-(4-trifluoromethoxyphenyl)-5-(4-fluoro-3-phenoxyphenyl)pentane], the mortality at 100 ppm lay in the range of 50 to 79% in assay [1] (100 ppm); 80 to 100% in assay [2] (100 ppm); 80 to 100% in the assay with Myzus persicae (aphids) (100 ppm); 80 to 100% in assay [3] (100 ppm); 80 to 100% in assay [5] (100 ppm); 80 to 100% in [6] (100 ppm). Moreover, the mortality at 100 ppm in assay [7], in [8] (100 ppm) and in assay [10] (100 ppm) was 80 to 100% in each case. Moreover, in assay [4] (100 ppm), the pest or weed control at 100 ppm was in the range of 80 to 100%. The mortality at 50 µg/mL in assay [9] (rate column 100 ppm) was less than 50%.
Consider `CC(C)(C)c1ccc(C(=CCCc2cccc(Oc3ccccc3)c2)C(F)(F)F)cc1` [Compound 6, 2-[4-(2-methylprop-2-yl)phenyl]-5-(3-phenoxyphenyl)-1,1,1-trifluoropent-2-ene], for which the mortality at 250 ppm is less than 50% in assay [1]; less than 50% in assay [2]; less than 50% with Myzus persicae (aphids); less than 50% in assay [3]; less than 50% in assay [5]; 80 to 100% in assay [6]. Further, the mortality at 250 ppm in assay [7] is less than 50%; in [8] it was less than 50%; in assay [10] it was 80 to 100%. Besides, the pest or weed control at 250 ppm in assay [4] is less than 50%. Further, the mortality at 125 µg/mL in [9] lay in the range of 70 to 100%.
Take `CCOc1ccc(/C(=C\C=C\c2ccc(F)c(Oc3ccccc3)c2)C(F)(F)F)cc1` [Compound 36, 1,1,1-trifluoro-2-(4-ethoxyphenyl)-5-(4-fluoro-3-phenoxyphenyl)penta-2,4-diene]: the mortality at 250 ppm was less than 50% in assay [1]; less than 50% in [2]; 80 to 100% in the assay with Myzus persicae (aphids); 80 to 100% in [3]; 80 to 100% in assay [5]; 80 to 100% in [6]. Moreover, the mortality at 250 ppm in [7], in [8] and in [10] was 80 to 100% each time. For the same molecule, the pest or weed control at 250 ppm in assay [4] was 80 to 100%. The mortality at 125 µg/mL in [9] was 50 to 69%.
On to `CCOc1ccc(C(CCCc2ccc(F)c(Oc3ccccc3)c2)C(F)(F)F)cc1` (racemic) [Compound 5, 1,1,1-Trifluoro-2-(4-ethoxyphenyl)-5-(4-fluoro-3-phenoxyphenyl)pentane], for which the mortality at 250 ppm lay within 80 to 100% in [1]; 50 to 79% in [2]; 80 to 100% with Myzus persicae (aphids); 80 to 100% in assay [3]; 80 to 100% in [5]; 80 to 100% in assay [6]. Besides, the mortality at 250 ppm in assay [7], in assay [8] and in assay [10] was 80 to 100% in each case. Further, the pest or weed control at 250 ppm in [4] fell in the range of 80 to 100%. In addition, in [9], the mortality at 125 µg/mL was less than 50%.
With `CCOc1ccc(C(C/C=C\c2cccc(Oc3ccccc3)c2)C(F)(F)F)cc1` (stereo not shown) [Compound 35, 1,1,1-trifluoro-2-(4-ethoxyphenyl)-5-(3-phenoxyphenyl)pent-4-ene], the mortality at 250 ppm in assay [1] was 80 to 100%; in assay [2], less than 50%; with Myzus persicae (aphids) it was 80 to 100%; in [3] it was 80 to 100%; in assay [5], 80 to 100%; in [6], 80 to 100%. The mortality at 250 ppm in assay [7], in assay [8] and in assay [10] was 80 to 100% in each case. Moreover, the pest or weed control at 250 ppm in assay [4] lay in the range of 80 to 100%. For the same molecule, in assay [9], the mortality at 125 µg/mL was less than 50%.
For the molecule `CCOc1ccc(C(=CCCc2cccc(Oc3ccccc3)c2)C(F)(F)F)cc1` [Compound 1, E,Z-2-(4-ethoxyphenyl)-5-(3-phenoxyphenyl)-1,1,1-trifluoropent-2-ene], the mortality at 500 ppm (in the assay with Myzus persicae (aphids); in assay [3]; in [5]; in assay [6]; in [7]; in [8]) was 80 to 100% in each case. In assay [10], the mortality at 500 ppm was 80 to 100%. Moreover, the pest or weed control at 500 ppm in assay [4] lay within 80 to 100%. The mortality at 250 µg/mL in assay [9] (rate column 500 ppm) fell in the range of 50 to 69%.
On to `FC(F)(F)C(CCCc1cccc(Oc2ccccc2)c1)c1ccc(Cl)cc1` (racemic) [Compound 38, 1,1,1-Trifluoro-2-(4-chlorophenyl)-5-(3-phenoxyphenyl)pentane], for which the mortality at 500 ppm in [1] (500 ppm) is 80 to 100%; in [2], less than 50%; in the assay with Myzus persicae (aphids), less than 50%; in assay [3] it was 80 to 100%; in [5] it was 50 to 79%; in assay [6] it was 50 to 79%. Besides, the mortality at 500 ppm in assay [8] and in [10] was 80 to 100% in each case. The pest or weed control at 500 ppm in assay [4] lay in the range of 50 to 79%.
Consider `FC(F)(F)C(=CCCc1cccc(Oc2ccccc2)c1)c1ccc(Br)cc1` [Compound 39, 1,1,1-Trifluoro-2-(4-bromophenyl)-5-(3-phenoxyphenyl)-pent-2-ene], for which the mortality at 500 ppm was less than 50% in assay [2]; less than 50% in the assay with Myzus persicae (aphids); less than 50% in assay [3]; less than 50% in [5]; 50 to 79% in [6]; less than 50% in assay [8]. For the same molecule, the mortality at 500 ppm in assay [10] lay in the range of 80 to 100%. Further, in assay [4], the pest or weed control at 500 ppm was less than 50%.
For the molecule `FC(F)(F)c1ccc(C(CCCc2cccc(Oc3ccccc3)c2)C(F)(F)F)cc1` (racemic) [Compound 16, 1,1,1-Trifluoro-2-(4-trifluoromethylphenyl)-5-(3-phenoxyphenyl)pentane], the mortality at 250 ppm in [1] lay in the range of 50 to 79%; with Myzus persicae (aphids) it was 80 to 100%; in [3], 80 to 100%; in assay [5], 80 to 100%; in assay [6] it was 80 to 100%; in [7], 80 to 100%. Further, the mortality at 250 ppm in assay [8] and in assay [10] was 80 to 100% throughout. Moreover, the pest or weed control at 250 ppm in assay [4] lay within 80 to 100%. Besides, the mortality at 125 µg/mL in assay [9] is less than 50%.

Source of the values: patent publication US4791139A, “Diphenyl ether derivatives and their use as insecticides” (Imperial Chemical Industries PLC, priority 1986, dated 1988).
